# Test results: article PMC8287724, “Reducing Auditory Nerve Excitability by Acute Antagonism of Ca^2+-Permeable AMPA Receptors” (Frontiers in Synaptic Neuroscience, 2021)
# Key:
# H4 histamine GPCR = target: T1, H4 histamine GPCR (Homo sapiens, UniProt Q9H3N8); assay: Radioligand binding assay, H4 receptor (transfected HEK-293 cells); conditions: antagonist 1 μM
# T1 construct: host or cells: HEK-293 cells
# Experimental: (§1) Binding assays were conducted to evaluate the affinity of test compounds IEM-1460 and IEM-1925 (Eurofins Scientific, Inc.) for 15 targets: the human alpha-1 adrenergic (A1) receptor, histaminergic (H)-2 and−3 receptors, and muscarinic acetylcholine receptors-1 to−5 in transfected CHO cells by radioligand binding. The neuronal α4β2 and neuronal α7 cholinergic acetylcholine receptors were tested in transfected SH-SY5Y cells. The histaminergic-1 and−4 receptors were tested in transfected HEK-293 cells. Ion channel testing for AMPA and N-methyl-D-aspartate (NMDA) was performed in cells from the rat cerebral cortex. […] Non-specific binding was determined in the presence of 1 μM of DCPX. […] The filters were dried and then counted for radioactivity in a scintillation counter (Topcount, Packard) using a scintillation cocktail (Microscint 0, Packard). The results are expressed as a percent inhibition of the control radioligand specific binding: 100-[(measured specific binding)/(control specific binding) × 100]. […]
# (§2) We tested the metabolic stability of the compounds with in vitro liver microsome stability assays (Table 1, right). […] We evaluated the compounds for potential toxicity with assays that test for inhibition of off-target ion channels and receptors. […]
# nAChR alpha7 = target: T2, nAChR alpha7 (Homo sapiens, UniProt P36544); assay: Radioligand binding assay, neuronal α7 nicotinic receptor (transfected SH-SY5Y cells); conditions: antagonist 1 μM
# T2 construct: host or cells: SH-SY5Y cells
# Experimental: as §1, §2
# M4 acetylcholine GPCR = target: T3, M4 acetylcholine GPCR (Homo sapiens, UniProt P08173); assay: Radioligand binding assay, M4 receptor (transfected CHO cells); conditions: antagonist 1 μM
# T3 construct: host or cells: CHO cells
# Experimental: as §1, §2
# M3 acetylcholine GPCR = target: T4, M3 acetylcholine GPCR (Homo sapiens, UniProt P20309); assay: Radioligand binding assay, M3 receptor (transfected CHO cells); conditions: antagonist 1 μM
# T4 construct: host or cells: CHO cells
# Experimental: as §1, §2
# A1 adenosine GPCR = target: T5, A1 adenosine GPCR (Homo sapiens, UniProt P30542); assay: Radioligand binding assay, A1 receptor (transfected CHO cells); conditions: antagonist 1 μM
# T5 construct: host or cells: CHO cells
# Experimental: as §1, §2
# [1] = In vitro microsomal stability assay, guinea pig; assay type: in vitro ADME; conditions: pH 7.4; guinea pig liver microsomes, 1 μM compound, 37°C; read-out: Half-life (min) Mean (N = 2)
# Experimental: (§3) The stability of IEM-1460 in the presence of guinea pig liver microsomes (BioIVT, PN: X008070) or IEM-1925 in the presence of human (BioIVT, PN: M00101), mouse, or guinea pig liver microsomes was evaluated (Paraza Pharma, Inc., Montreal, Quebec, Canada). Both IEM-1925 and IEM-1460 were incubated with microsomes at 37°C for a total of 45 min. Working solutions were prepared in 100 mM potassium phosphate buffer and the final reaction was performed at pH 7.4 in 100 mM potassium phosphate buffer containing 0.5 mg/mL liver microsomal protein. Phase I metabolism was assessed by adding NADPH to a final concentration of 1 mM and collecting samples at time points 0, 5, 15, 30, and 45 min. All collected samples were quenched 1:1 with ice-cold stop solution (1 μM labetalol and 1 μM glyburide in acetonitrile) and centrifuged to remove precipitated protein. […] Samples were analyzed by LC-MS/MS using a Thermo Vanquish UPLC and a Thermo Quantis triple quadrupole mass spectrometer. […] Reference compounds were also assessed to ensure accuracy and precision of experimental protocol: imipramine and verapamil for human liver microsomes, diphenhydramine and verapamil for mouse liver microsomes, and warfarin and verapamil for guinea pig liver microsomes. […] Half-life was determined from a plot of the natural logarithm of the peak area ratio (remaining compound peak area/internal standard peak area) against time. […]
# H2 histamine GPCR = target: T6, H2 histamine GPCR (Homo sapiens, UniProt P25021); assay: Radioligand binding assay, H2 receptor (transfected CHO cells); conditions: antagonist 1 μM
# T6 construct: host or cells: CHO cells
# Experimental: as §1, §2
# [2] = test system: pyramidal cells (expressing mainly GluA2-containing CI-AMPARs); set-up: method as in Tikhonov et al., 2000; conditions: rat hippocampus ref Tikhonov et al., 2000; cited from earlier work
# M5 acetylcholine GPCR = target: T7, M5 acetylcholine GPCR (Homo sapiens, UniProt P08912); assay: Radioligand binding assay, M5 receptor (transfected CHO cells); conditions: antagonist 1 μM
# T7 construct: host or cells: CHO cells
# Experimental: as §1, §2
# M1 acetylcholine GPCR = target: T8, M1 acetylcholine GPCR (Homo sapiens, UniProt P11229); assay: Radioligand binding assay, M1 receptor (transfected CHO cells); conditions: antagonist 1 μM
# T8 construct: host or cells: CHO cells
# Experimental: as §1, §2
# NMDA glutamate = assay: Radioligand binding assay, NMDA receptor (rat cerebral cortex); conditions: antagonist 1 μM
# Experimental: as §1, §2
# [3] = In vitro microsomal stability assay, human; assay type: in vitro ADME; conditions: pH 7.4; human liver microsomes, 1 μM compound, 37°C; read-out: Half-life (min) Mean (N = 2)
# Experimental: as §3
# [4] = target: T9, hERG potassium channel (Kv 11.1) (Homo sapiens, UniProt Q12809); assay: Radioligand binding assay, hERG potassium channel; conditions: antagonist 1 μM, read-out: Mean% inhibition (N = 2) of radioligand binding
# T9 construct: Eurofins Scientific, Inc
# Experimental: as §1, §2
# T2 sequence (P36544 23-502): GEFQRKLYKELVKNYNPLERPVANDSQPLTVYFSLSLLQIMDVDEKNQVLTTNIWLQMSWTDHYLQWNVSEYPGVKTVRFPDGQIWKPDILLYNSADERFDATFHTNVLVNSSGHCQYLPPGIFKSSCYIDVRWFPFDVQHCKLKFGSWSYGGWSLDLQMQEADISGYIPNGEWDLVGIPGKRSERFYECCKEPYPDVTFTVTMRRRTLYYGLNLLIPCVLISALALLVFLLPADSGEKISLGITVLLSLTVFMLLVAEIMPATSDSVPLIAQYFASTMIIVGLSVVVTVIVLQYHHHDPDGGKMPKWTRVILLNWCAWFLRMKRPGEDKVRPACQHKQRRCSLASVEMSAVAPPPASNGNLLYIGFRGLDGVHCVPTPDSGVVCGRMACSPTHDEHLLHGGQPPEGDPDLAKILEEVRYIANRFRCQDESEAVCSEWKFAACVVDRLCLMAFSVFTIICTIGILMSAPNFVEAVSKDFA
# T1 sequence (Q9H3N8 whole entry): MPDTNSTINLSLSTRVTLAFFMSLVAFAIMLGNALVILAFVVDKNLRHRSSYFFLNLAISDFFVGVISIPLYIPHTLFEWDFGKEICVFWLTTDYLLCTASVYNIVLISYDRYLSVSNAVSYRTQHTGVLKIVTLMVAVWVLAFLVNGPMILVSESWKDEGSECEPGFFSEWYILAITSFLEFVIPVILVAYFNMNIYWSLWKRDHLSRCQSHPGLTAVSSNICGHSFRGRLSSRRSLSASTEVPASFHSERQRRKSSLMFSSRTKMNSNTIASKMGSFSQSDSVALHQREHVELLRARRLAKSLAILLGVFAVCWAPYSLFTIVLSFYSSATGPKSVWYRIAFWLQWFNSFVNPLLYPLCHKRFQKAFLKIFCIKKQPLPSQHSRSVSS
# T3 sequence (P08173 whole entry): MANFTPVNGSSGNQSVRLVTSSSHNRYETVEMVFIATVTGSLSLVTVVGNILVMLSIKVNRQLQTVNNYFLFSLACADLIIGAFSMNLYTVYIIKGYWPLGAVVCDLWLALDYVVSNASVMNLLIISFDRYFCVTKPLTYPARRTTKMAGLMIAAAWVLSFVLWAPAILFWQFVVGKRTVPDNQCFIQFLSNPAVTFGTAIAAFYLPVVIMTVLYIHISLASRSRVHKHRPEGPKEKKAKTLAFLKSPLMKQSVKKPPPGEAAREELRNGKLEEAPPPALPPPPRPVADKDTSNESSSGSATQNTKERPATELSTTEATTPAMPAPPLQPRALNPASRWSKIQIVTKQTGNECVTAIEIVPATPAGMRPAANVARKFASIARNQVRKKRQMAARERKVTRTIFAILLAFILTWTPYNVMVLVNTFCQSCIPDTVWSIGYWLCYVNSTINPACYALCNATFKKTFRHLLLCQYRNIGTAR
# T6 sequence (P25021 whole entry): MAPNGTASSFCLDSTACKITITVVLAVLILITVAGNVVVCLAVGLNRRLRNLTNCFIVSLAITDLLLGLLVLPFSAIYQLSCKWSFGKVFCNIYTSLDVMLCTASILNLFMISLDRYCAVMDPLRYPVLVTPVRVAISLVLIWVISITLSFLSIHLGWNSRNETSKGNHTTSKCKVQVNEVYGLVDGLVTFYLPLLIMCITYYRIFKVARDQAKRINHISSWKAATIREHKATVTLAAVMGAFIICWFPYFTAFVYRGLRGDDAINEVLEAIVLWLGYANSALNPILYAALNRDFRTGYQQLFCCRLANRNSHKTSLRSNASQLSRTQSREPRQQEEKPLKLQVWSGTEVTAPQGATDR
# T5 sequence (P30542 whole entry): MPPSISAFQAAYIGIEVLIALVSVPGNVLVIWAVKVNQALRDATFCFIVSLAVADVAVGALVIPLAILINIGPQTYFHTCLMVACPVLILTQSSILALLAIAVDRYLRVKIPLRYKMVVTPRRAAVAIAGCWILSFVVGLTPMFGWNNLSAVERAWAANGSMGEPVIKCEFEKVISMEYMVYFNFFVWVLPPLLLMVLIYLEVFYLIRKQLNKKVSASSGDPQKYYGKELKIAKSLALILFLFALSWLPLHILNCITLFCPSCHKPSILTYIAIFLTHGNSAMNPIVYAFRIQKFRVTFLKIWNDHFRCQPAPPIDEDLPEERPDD
# T9 sequence (Q12809 whole entry): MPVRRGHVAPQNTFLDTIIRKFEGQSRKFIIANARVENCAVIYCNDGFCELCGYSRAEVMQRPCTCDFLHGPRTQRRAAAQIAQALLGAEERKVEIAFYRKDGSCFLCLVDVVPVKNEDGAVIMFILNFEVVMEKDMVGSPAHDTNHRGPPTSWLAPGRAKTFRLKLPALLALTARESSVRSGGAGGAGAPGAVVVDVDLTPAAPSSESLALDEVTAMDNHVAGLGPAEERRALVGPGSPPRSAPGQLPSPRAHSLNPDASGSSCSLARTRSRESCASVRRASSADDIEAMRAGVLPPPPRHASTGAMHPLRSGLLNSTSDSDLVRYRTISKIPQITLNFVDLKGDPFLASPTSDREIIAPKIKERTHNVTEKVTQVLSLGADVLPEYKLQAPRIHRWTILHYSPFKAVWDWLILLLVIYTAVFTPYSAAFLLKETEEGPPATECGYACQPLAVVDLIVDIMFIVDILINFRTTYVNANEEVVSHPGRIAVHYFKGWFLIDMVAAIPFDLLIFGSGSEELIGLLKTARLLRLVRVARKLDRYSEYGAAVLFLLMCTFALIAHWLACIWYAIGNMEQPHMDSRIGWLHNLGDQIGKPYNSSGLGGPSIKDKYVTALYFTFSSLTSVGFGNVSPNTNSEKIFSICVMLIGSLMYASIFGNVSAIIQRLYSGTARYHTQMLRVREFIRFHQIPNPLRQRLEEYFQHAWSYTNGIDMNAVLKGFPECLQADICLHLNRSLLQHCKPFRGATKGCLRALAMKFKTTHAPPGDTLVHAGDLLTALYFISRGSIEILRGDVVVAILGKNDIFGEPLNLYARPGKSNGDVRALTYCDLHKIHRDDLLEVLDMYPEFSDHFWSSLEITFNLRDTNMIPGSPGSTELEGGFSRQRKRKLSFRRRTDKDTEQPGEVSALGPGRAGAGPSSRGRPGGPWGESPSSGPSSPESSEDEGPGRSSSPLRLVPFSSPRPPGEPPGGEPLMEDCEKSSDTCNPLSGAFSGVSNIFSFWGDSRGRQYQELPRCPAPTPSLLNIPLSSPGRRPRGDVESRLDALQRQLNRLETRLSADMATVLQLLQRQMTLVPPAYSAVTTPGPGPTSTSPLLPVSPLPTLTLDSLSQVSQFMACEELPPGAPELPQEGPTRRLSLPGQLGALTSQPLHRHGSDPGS
# T4 sequence (P20309 whole entry): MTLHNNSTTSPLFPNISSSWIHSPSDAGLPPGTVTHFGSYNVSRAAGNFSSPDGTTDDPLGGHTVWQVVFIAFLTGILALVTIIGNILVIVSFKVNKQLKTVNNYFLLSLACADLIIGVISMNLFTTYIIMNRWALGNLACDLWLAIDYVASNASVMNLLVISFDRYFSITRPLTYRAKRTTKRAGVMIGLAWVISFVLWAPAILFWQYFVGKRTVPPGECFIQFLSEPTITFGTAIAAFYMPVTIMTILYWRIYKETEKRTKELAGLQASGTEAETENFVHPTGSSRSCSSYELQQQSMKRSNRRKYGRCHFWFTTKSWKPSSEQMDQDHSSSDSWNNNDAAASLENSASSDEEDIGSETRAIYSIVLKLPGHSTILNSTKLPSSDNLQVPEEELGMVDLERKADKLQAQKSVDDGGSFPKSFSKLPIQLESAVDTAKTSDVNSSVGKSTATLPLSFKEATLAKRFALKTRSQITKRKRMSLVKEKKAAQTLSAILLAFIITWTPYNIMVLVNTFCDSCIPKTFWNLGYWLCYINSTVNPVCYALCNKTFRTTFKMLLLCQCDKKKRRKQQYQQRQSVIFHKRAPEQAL
# T7 sequence (P08912 whole entry): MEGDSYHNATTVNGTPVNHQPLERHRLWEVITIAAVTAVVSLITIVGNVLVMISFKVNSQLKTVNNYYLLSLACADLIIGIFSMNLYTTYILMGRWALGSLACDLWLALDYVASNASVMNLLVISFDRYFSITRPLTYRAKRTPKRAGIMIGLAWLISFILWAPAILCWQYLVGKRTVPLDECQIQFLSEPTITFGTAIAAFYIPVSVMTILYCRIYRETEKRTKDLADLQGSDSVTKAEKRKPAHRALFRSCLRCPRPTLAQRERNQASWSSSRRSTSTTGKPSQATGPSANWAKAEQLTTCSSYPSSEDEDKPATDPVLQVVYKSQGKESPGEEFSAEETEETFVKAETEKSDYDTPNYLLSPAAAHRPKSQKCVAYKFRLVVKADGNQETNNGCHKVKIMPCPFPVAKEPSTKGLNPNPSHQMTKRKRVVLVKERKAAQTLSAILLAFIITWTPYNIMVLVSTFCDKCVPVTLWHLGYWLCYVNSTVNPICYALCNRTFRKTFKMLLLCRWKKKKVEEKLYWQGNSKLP
# T8 sequence (P11229 whole entry): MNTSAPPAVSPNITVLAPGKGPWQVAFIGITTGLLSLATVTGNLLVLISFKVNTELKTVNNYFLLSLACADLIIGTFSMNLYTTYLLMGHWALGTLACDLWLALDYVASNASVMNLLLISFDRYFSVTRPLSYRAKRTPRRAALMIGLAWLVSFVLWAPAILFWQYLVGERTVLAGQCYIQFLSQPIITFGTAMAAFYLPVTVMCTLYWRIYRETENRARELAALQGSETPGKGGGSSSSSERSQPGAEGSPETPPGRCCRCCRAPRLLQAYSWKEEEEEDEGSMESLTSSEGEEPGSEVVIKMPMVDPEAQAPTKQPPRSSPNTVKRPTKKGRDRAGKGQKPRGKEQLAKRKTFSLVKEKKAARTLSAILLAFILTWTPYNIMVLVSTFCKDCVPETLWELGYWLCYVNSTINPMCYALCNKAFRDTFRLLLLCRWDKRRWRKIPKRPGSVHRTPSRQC
SMILES,Mean% inhibition (N = 2) of radioligand binding (H4 histamine GPCR),Mean% inhibition (N = 2) of radioligand binding (nAChR alpha7),Mean% inhibition (N = 2) of radioligand binding (M4 acetylcholine GPCR),Mean% inhibition (N = 2) of radioligand binding (M3 acetylcholine GPCR),Mean% inhibition (N = 2) of radioligand binding (A1 adenosine GPCR),half-life at 1 μM [1],Mean% inhibition (N = 2) of radioligand binding (H2 histamine GPCR),IC50 [2],Mean% inhibition (N = 2) of radioligand binding (M5 acetylcholine GPCR),Mean% inhibition (N = 2) of radioligand binding (M1 acetylcholine GPCR),Mean% inhibition (N = 2) of radioligand binding (NMDA glutamate),half-life at 1 μM [3],inhibition at 1 μM [4]
C[N+](C)(C)CCCCCNCC12CC3CC(CC(C3)C1)C2 [IEM-1460],<1%,<1%,37%,15%,<1%,> 300 min,<1%,> 500 µM,5.2%,<1%,<1%,> 300 min,< 5%
NCCCCCNC1(c2ccccc2)CCCCC1 [IEM-1925],<5%,<2%,19%,<5%,<1%,> 300 min,<1%,> 200 µM,<5%,<1%,<1%,> 300 min,< 1%
